Experimental findings from patent US11136312B2, “3,4,5-trisubstituted-1,2,4-triazoles and 3,4,5-trisubstituted-3-thio-1,2,4-triazoles and uses thereof” (Board of Trustees of Southern Illinois University, priority 2017, dated 2021) are described below.

For assay [1], the target named is human somatostatin receptor SSTR3 (Homo sapiens (Human), UniProt P32745). The experiment in a line: Competitive radioligand binding, 125I-Tyr-SRIF 14, membrane preparations. The note with it: competitive binding vs 125I-Tyr-SRIF 14, human SSTR3 membranes; read-out: SST3. The method, then: (§1) Competitive radioligand binding experiments were performed using MEMBRANE TARGET Systems (Perkin-Elmer, Boston, Mass.) for human somatostatin receptors: SSTR1 (ES-520-M400UA), SSTR2A (ES-521-M400UA), SSTR3 (ES523-M400UA), SSTR4 (ES-524-M400UA) and SSTR5 (ES-522-M400UA) receptors. (See Table 1). Respective membrane receptor preparations were prepared in assay buffer (25 mM HEPES, 10 mM MgCl2, 1 mM CaCl2, 0.5% BSA, pH=7.4) at a 1:150 dilution. Binding assays were performed using 1251-Tyr-SRIF 14 (Perkin-Elmer, NEX 3890) dissolved in 1 mM HCl. Binding assays were performed in triplicate for each concentration of ligand in a total volume of 200 μL radioligand (25 μL ligand, 25 μL radioligand, 150 μL receptors) and incubated at room temperature for 90 minutes using a shaking table. Binding was terminated by filtration through GF/B glass fiber filters that were presoaked in 0.5% polyethyleneimine for a minimum of 4 hours. Filters were washed 9× with 1000 μL ice cold wash buffer (50 mM Tris-HCl, pH=7.4, 0.2% BSA). Filters were scored, transferred into plastic test tubes and counted in a gamma counter (Wizard2, Perkin-Elmer). Determination of the Ki for each compound was performed using non-linear regression with GraphPad PRISM-5 software (GraphPad Software, Inc., La Jolla, Calif.).

In assay [2] the target is human somatostatin receptor SSTR2A (Homo sapiens (Human), UniProt P30874). The description is as above. Particulars: competitive binding vs 125I-Tyr-SRIF 14, human SSTR2A membranes; read-out: SST2. How it is done:
as §1, with “Respective” for “Competitive radioligand binding experiments were performed using MEMBRANE TARGET Systems (Perkin-Elmer, Boston, Mass.) for human somatostatin receptors: SSTR1 (ES-520-M400UA), SSTR2A (ES-521-M400UA), SSTR3 (ES523-M400UA), SSTR4 (ES-524-M400UA) and SSTR5 (ES-522-M400UA) receptors. (See Table 1). Respective”, “Binding assays were performed using 1251-Tyr-SRIF 14 (Perkin-Elmer, NEX 3890) dissolved in 1 mM HCl.” left out

The target in assay [3] is CHO-K1 cells expressing human somatostatin SSTR4 (Homo sapiens (Human), UniProt P31391). The experiment in a line: Inhibition of forskolin stimulated cAMP, TR-FRET LANCE assay. It is filed as cell-based. The note with it: against 5 μM forskolin. How it is done:
Measurement of forskolin stimulated inhibition of cAMP was performed via time-resolved fluorescence resonance energy transfer (TR-FRET) LANCE assay (AD0262, PerkinElmer Life Science, Inc., Boston Mass.). […] LANCE cAMP assay was performed per manufacture instruction with assessment of respective compound, somatostatin-28 (Sigma-Aldrich Co., St. Louis, Mo.) as control agonist, against 5 μM forskolin, performed in triplicate across concentration curve. […] Data was calculated via GraphPad PRISM-5 software.

Assay [4] addresses human somatostatin receptor SSTR5 (Homo sapiens (Human), UniProt P35346). The experiment in a line: Competitive radioligand binding, 125I-Tyr-SRIF 14, membrane preparations. Particulars: competitive binding vs 125I-Tyr-SRIF 14, human SSTR5 membranes; read-out: SST5. The method, then: as §1, with “Respective” for “Competitive radioligand binding experiments were performed using MEMBRANE TARGET Systems (Perkin-Elmer, Boston, Mass.) for human somatostatin receptors: SSTR1 (ES-520-M400UA), SSTR2A (ES-521-M400UA), SSTR3 (ES523-M400UA), SSTR4 (ES-524-M400UA) and SSTR5 (ES-522-M400UA) receptors. (See Table 1). Respective”, “Binding assays were performed using 1251-Tyr-SRIF 14 (Perkin-Elmer, NEX 3890) dissolved in 1 mM HCl.” left out

The target of assay [5] is human somatostatin receptor SSTR1 (Homo sapiens (Human), UniProt P30872). The assay is described as above. Particulars: competitive binding vs 125I-Tyr-SRIF 14, human SSTR1 membranes; read-out: SST1. The method, then:
as §1, with “Respective” for “Competitive radioligand binding experiments were performed using MEMBRANE TARGET Systems (Perkin-Elmer, Boston, Mass.) for human somatostatin receptors: SSTR1 (ES-520-M400UA), SSTR2A (ES-521-M400UA), SSTR3 (ES523-M400UA), SSTR4 (ES-524-M400UA) and SSTR5 (ES-522-M400UA) receptors. (See Table 1). Respective”, “Binding assays were performed using 1251-Tyr-SRIF 14 (Perkin-Elmer, NEX 3890) dissolved in 1 mM HCl.” left out

Chain of human somatostatin receptor SSTR2A (P30874 whole entry): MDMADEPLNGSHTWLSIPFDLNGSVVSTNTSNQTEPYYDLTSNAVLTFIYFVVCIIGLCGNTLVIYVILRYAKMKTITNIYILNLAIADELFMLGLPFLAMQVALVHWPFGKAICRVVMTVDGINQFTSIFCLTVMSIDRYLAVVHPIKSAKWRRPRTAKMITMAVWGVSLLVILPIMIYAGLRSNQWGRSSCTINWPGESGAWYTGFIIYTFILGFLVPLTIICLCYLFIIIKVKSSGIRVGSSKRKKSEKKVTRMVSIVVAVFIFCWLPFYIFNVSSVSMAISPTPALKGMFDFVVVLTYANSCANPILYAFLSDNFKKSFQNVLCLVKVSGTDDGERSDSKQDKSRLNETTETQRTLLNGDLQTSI
Chain of CHO-K1 cells expressing human somatostatin SSTR4 (P31391 whole entry): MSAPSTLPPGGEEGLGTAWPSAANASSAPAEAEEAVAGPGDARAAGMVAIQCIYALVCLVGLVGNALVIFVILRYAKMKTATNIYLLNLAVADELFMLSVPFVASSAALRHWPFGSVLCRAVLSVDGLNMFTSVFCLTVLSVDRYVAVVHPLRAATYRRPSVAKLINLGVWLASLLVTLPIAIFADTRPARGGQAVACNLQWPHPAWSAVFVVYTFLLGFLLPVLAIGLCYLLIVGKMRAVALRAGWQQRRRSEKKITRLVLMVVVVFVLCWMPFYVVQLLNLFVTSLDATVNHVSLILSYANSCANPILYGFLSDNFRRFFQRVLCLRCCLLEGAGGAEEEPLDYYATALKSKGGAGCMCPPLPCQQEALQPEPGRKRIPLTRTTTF

With `c1ccc(Cc2nnc(Cc3c[nH]c4ccccc34)n2CCCc2c[nH]cn2)cc1` [SK-I-25, 3-((4-(3-(1H-imidazol-4-yl)propyl)-5-benzyl-4H-1,2,4-triazol-3-yl)methyl)-1H-indole], the Ki in assay [1] is 0.0017 µM; in assay [2], greater than 10 µM. Moreover, the EC50 in assay [3] was found to be 0.00203 µM.

Regarding `Brc1cccc(Cc2nnc(CCc3c[nH]c4ccccc34)n2CCCc2c[nH]cn2)c1` [SM-I-50, 3-(2-(4-(3-(1H-Imidazol-4-yl)propyl)-5-(3-bromobenzyl)-4H-1,2,4-triazol-3-yl)ethyl)-1H-indole], the Ki in assay [1] is greater than 10 µM; in assay [2] it was greater than 10 µM; in assay [4] it was greater than 10 µM; in assay [5] it was 4.74 µM.

As to `Fc1cc(F)cc(Cc2nnc(CCc3c[nH]c4ccccc34)n2CCCc2c[nH]cn2)c1` [SM-I-55, 3-(2-(4-(3-(1H-Imidazol-4-yl)propyl)-5-(3,5-difluorobenzyl)-4H-1,2,4-triazol-3-yl)ethyl)-1H-indole], the Ki in assay [1], in assay [2], in assay [4] and in assay [5] was greater than 10 µM throughout.

Regarding `Cn1cc(CCc2nnc(Cc3ccc(Cl)c(Cl)c3)n2CCCc2c[nH]cn2)c2ccccc21` [SM-I-60, 3-(2-(4-(3-(1H-Imidazol-4-yl)propyl)-5-(3,4-dichlorobenzyl)-4H-1,2,4-triazol-3-yl)ethyl)-1-methyl-1H-indole], the Ki in assay [1] is 6.99 µM; in assay [2], greater than 10 µM; in assay [4], greater than 10 µM; in assay [5], 3.17 µM.
